Test systems include SW-620 colon; MALME-3M melanoma; MCF7 breast; PC-3 prostate; A549 NSCLC; SNB-75 CNS; HS 578T breast; RXF 393 renal; OVCAR-5 ovarian; 786-0 renal.
Common to all, as to test: NCI tumour cell line growth inhibition, 48 h

Results on 7 molecules are retold here after PubChem BioAssay (NCI).

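96-well plates; 48 h exposure; 5 concentrations. Endpoints by linear interpolation between flanking doses. Not reached: highest tested concentration assigned. Here, GI50 denotes the concentration required for 50% inhibition of growth. Definition used: TGI = concentration required for complete inhibition of growth.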

For `O=C(O)C/C=C/CC(=O)O`, the TGI in the test with SW-620 colon, in the test with MALME-3M melanoma, in the test with MCF7 breast, with PC-3 prostate, in the test with A549 NSCLC and in the test with SNB-75 CNS was more than 100000 nM throughout. The TGI with HS 578T breast, with RXF 393 renal, in the test on OVCAR-5 ovarian and with 786-0 renal was more than 100000 nM throughout.

`O=C1C(=O)c2c(nc3ccc(Cl)cn23)-c2ccccc21`: the GI50 was 292 nM in the test on SW-620 colon; 171 nM with MALME-3M melanoma; 167 nM in the test on MCF7 breast; 1200 nM with PC-3 prostate; 840 nM with A549 NSCLC; 1250 nM in the test with SNB-75 CNS. Also, the GI50 with HS 578T breast is 239 nM; with RXF 393 renal, 564 nM; in the test with OVCAR-5 ovarian it was 593 nM; in the test on 786-0 renal it was 775 nM. Besides, the TGI in the test on SW-620 colon came to 1030 nM; in the test with MALME-3M melanoma, 368 nM; in the test with MCF7 breast, 356 nM; with PC-3 prostate, 10600 nM; in the test on SNB-75 CNS, 2610 nM; in the test with HS 578T breast, 740 nM. Moreover, the TGI with RXF 393 renal amounted to 5610 nM; with OVCAR-5 ovarian, 1150 nM; with 786-0 renal, 1820 nM.

For the molecule `C=CC(=O)N(C)[C@H]1C[C@H]2OC(C)(C1OC)n1c3ccccc3c3c4c(c5c6ccccc6n2c5c31)C(=O)NC4` (some centres undefined), the GI50 in the test on SW-620 colon was 51.4 nM; in the test with MALME-3M melanoma it was 70.6 nM; in the test on MCF7 breast it was 123 nM; in the test on PC-3 prostate, 182 nM; in the test on A549 NSCLC it was 93.8 nM; with SNB-75 CNS, 13.7 nM. In addition, the GI50 in the test on HS 578T breast was 88.7 nM; with RXF 393 renal, 22.1 nM; in the test on OVCAR-5 ovarian, 106 nM; in the test on 786-0 renal, 87.2 nM. Besides, the TGI with SW-620 colon is 792 nM; in the test on MALME-3M melanoma, 449 nM; in the test on MCF7 breast, more than 50000 nM; in the test with PC-3 prostate it was 15200 nM; in the test with A549 NSCLC, more than 20000 nM; with SNB-75 CNS, 76.6 nM. The TGI was 600 nM in the test with HS 578T breast, 157 nM with RXF 393 renal, more than 50000 nM in the test with OVCAR-5 ovarian and 690 nM with 786-0 renal.

With `COc1cc2nc(N3CCCC3)nc(NCC3CCCCC3)c2cc1OC`, the GI50 is 1390 nM in the test on SW-620 colon; 1240 nM in the test on MALME-3M melanoma; 515 nM in the test on MCF7 breast; 1130 nM with PC-3 prostate; 1520 nM with A549 NSCLC; 1470 nM in the test with SNB-75 CNS. In addition, the GI50 is 1790 nM in the test with HS 578T breast, 1070 nM with RXF 393 renal, 1590 nM with OVCAR-5 ovarian and 1470 nM in the test with 786-0 renal. Further, the TGI in the test on SW-620 colon was found to be 2890 nM; in the test with MALME-3M melanoma, 2550 nM; in the test on MCF7 breast, 2030 nM; with PC-3 prostate it was 2830 nM; in the test on A549 NSCLC, 3250 nM; with SNB-75 CNS it was 2810 nM. Further, the TGI in the test on HS 578T breast is 3710 nM; in the test with RXF 393 renal, 2490 nM; in the test on OVCAR-5 ovarian, 2960 nM; with 786-0 renal it was 3110 nM.

`C=CC(=O)Nc1cccc(C)c1Nc1cc(-c2cccnc2Cc2c(C)c(OC)cc(OC)c2C)ncn1`: the GI50 with SW-620 colon was 10700 nM; in the test on MALME-3M melanoma it was 17800 nM; with MCF7 breast it was 5270 nM; in the test with PC-3 prostate, 5650 nM; with A549 NSCLC, 16200 nM; with SNB-75 CNS, 13200 nM. Further, the GI50 was 10600 nM in the test with HS 578T breast, 2520 nM with RXF 393 renal, 27400 nM with OVCAR-5 ovarian and 10200 nM in the test with 786-0 renal. The TGI is 41700 nM in the test on SW-620 colon; 49000 nM with MALME-3M melanoma; more than 100000 nM with MCF7 breast; more than 100000 nM with PC-3 prostate; more than 100000 nM with A549 NSCLC; 91200 nM with SNB-75 CNS. Further, the TGI was 68300 nM in the test with HS 578T breast, 7890 nM with RXF 393 renal, more than 100000 nM with OVCAR-5 ovarian and 39600 nM in the test on 786-0 renal.

For the molecule `Cc1cc(N/N=C/c2nc(-c3ccc(Br)cc3)oc2C)c2cc(Cl)ccc2n1`, the GI50 in the test with SW-620 colon, in the test on MALME-3M melanoma, in the test on MCF7 breast, in the test on PC-3 prostate, with A549 NSCLC and with SNB-75 CNS was more than 100000 nM throughout. The GI50 in the test on HS 578T breast, with RXF 393 renal, in the test on OVCAR-5 ovarian and in the test with 786-0 renal was more than 100000 nM throughout. In addition, the TGI in the test on SW-620 colon, with MALME-3M melanoma, in the test with MCF7 breast, in the test with PC-3 prostate, with A549 NSCLC and in the test with SNB-75 CNS was more than 100000 nM throughout. For the same molecule, the TGI in the test on HS 578T breast, with RXF 393 renal, in the test with OVCAR-5 ovarian and with 786-0 renal was more than 100000 nM throughout.

On to `Cc1ccc(NC(=O)/C=C/c2ccccc2)c(C(N)=O)c1`, for which the GI50 with SW-620 colon was 2500 nM; in the test on MALME-3M melanoma it was 5990 nM; with MCF7 breast, 3150 nM; in the test with PC-3 prostate, 4070 nM; in the test with A549 NSCLC, 5280 nM; in the test with SNB-75 CNS it was 2620 nM. Moreover, the GI50 is 1690 nM in the test with HS 578T breast, 2670 nM in the test with RXF 393 renal, 9680 nM with OVCAR-5 ovarian and 6410 nM in the test with 786-0 renal. The TGI was more than 100000 nM in the test on SW-620 colon; more than 100000 nM in the test on MALME-3M melanoma; more than 100000 nM in the test with MCF7 breast; more than 100000 nM with PC-3 prostate; more than 100000 nM in the test on A549 NSCLC; 15100 nM in the test on SNB-75 CNS. Further, the TGI with HS 578T breast is 6630 nM; in the test with RXF 393 renal, 8160 nM; in the test on OVCAR-5 ovarian, more than 100000 nM; in the test with 786-0 renal it was 53000 nM.
